Laboratory results: patent US20090005253A1, “Double Hybrid System Based on Gene Silencing by Transcriptional Interference” (AVENTIS PHARMA S.A., priority 2004, published 2009)

System: Fe65/App interaction
Experiment: growth restoration test on solid medium, yRB49 (rY2H UI interference system) expressing the Fe65/App interaction
Type: cell-based
Conditions: medium free of histidine, 1 mM 3-AT; 1 μl at 0.125%, 0.25%, 0.5% or 1% at center of dish; 30° C., 48 hours
Procedure: The strain containing the UI transcriptional interference system (yRB49) and cotransformed with the plasmids pRB34 and pRB35 (Fe65/App interaction) was plated out onto medium without histidine and containing 1 mM of 3-AT. […] The dishes were incubated at 30° C. for 48 hours.
The strain containing the UI transcriptional interference system (yRB49) was cotransformed with the pairs of plasmids pRB34 and pRB35 (Fe65/App interaction) or pDBT-mdm2 and pVP16-p53Nt (mdm2/p53 interaction). The strain containing the plasmids pRB34 and pRB35 (Fe65/App interaction) was plated out onto 5 dishes of medium without histidine supplemented with 1 mM of 3-AT (top row); the strain containing the plasmids pDBT-mdm2 and pVP16-p53Nt (mdm2/p53 interaction) was similarly plated out onto 5 dishes of medium without histidine supplemented with 20 mM of 3-AT (bottom row).
A control dish was prepared for each interaction by depositing 1 μl of histidine at 0.125% w/v at the center of this dish. A different molecule, A, B, C or D, was deposited onto each of the other 4 dishes, according to the following scheme: in the upper left corner, 1 μl of the product at a concentration of 0.1 mM is deposited; in the upper right corner, 1 μl of the same product at a concentration of 1 mM is deposited; at the center, 1 μl of this product at 10 mM is deposited. […]

N[C@@H](Cc1c[nH]cn1)C(=O)O [histidine]
restoration of growth around the deposit by nutrient (FIG. 8C): capable of restoring the growth
